The text below walks through data of patent US20240024216A1, “METHODS AND MATERIALS FOR TREATING HAIR LOSS” (The Penn State Research Foundation, priority 2021, published 2024).

In series [1] the test system is keratinocytes, Schwann cells and fibroblast. The series is described as follows: Cell viability MTT assay. The format is cell-based, human. As to conditions: concentrations of 4-AP used in vitro; 24 hours. The method, then:
The keratinocytes, Schwann cells and fibroblast were culture on 96-well plates, the wells were pre-coated with respective coating matrix in complete growth medium and incubated cells for 12-18 hours at 37° C. in 5% CO2 incubator. Cells were washed with PBS and added basal Schwann cells/fibroblast/keratinocytes medium to starve, then incubated for 4 hours at 37° C. with 5% CO2. After the incubation period, various concentrations of 4-AP (concentrations ranging from 1 to 10000 μM) in 100 μL containing respective medium's (complete keratinocytes, Schwann cells and fibroblast medium), cells were incubated either 24 hours at +37° C. and 5% CO2 incubator. After completion of incubation time, 10 μL of the MTT labeling reagent (final concentration 0.5 mg/ml) was added to each well and incubate at +37° C. for 4 hours in a humidified atmosphere. Then, 100 μL of the solubilization solution into each well and allow the plate to stand in the incubator overnight or until the formazan crystals had dissolved. […] The formazan absorbance was read using wavelength of 550 nm in a plate reader. The color of optical density (OD) is directly propositional to number of live cells. The percentage of live keratinocytes/Schwann cells/fibroblast cells was determined using the following formula. […]

Series [2] has as its system human foreskin primary keratinocytes. The series is described as follows: Scratch wound healing migration assay, primary keratinocytes. It is filed as cell-based. As for the experimental part:
Keratinocytes isolation, culture conditions and characterization—The isolated epidermis was placed in a petri dish containing HEPES buffer for 10 minutes at room temperature, then treated with trypsin at 37° C. until the epidermis became loose and medium cloudy due to keratinocytes release. The cloudy medium was collected and trypsin activity neutralized using fetal bovine serum (FBS) in 1:1 ratio. The epidermis suspended keratinocytes were centrifuges at 1500 rpm for 5 minutes. The pellet resuspended in KGM-GOLD keratinocytes medium (Lonza KGM gold and supplements, Catlog No. 00192151 and 00192152). The isolated foreskin cultured on a culture dish and placed at 37° C. in 5% CO2 incubator for 1-2 days to allow keratinocytes to adhere. Adhere keratinocytes were continued incubation in KGM-Gold medium until cells reach about 80% confluent.
Keratinocytes/Schwann cells/fibroblasts (7×10^4 cells/well keratinocytes and 3.5×10^4 cells/well of SCs and FBs) with their respective medium were seeded on pre-coated either with collagen-I/PLL/no 96-well ImageLock microplate for 6 hours (Incucyte-sartorius plate, Cat log 4379). For the drug treatment cells were pretreated with 4-AP prior to coating for 16-18 hours. Next, the wound scratch was created using IncuCyte automated system (Essen BioScience). After scratches the cells washed with PBS and the respective cells medium was added with or without 1 mM of 4-AP. The plate was incubated in Incucyte automated imaging system, wound healing and cells migration was monitored by time-lapse photography capturing every hour from 0 to 42 hours. The relative area of wound size and cells migration at each time point was analyzed using IncuCyte™ Scratch Wound Cell Migration Software Module (Essen BioScience) and the percent of wound healing was calculated from the area measured after scratching relative to the basal area as expressed in pixels.
Indirect immunofluorescence was used to identify, characterize and to analyze the proliferation after 4-AP treatment. […]

In series [3] the test system is human foreskin dermal primary fibroblast. The series is described as follows: Scratch wound healing migration assay, primary dermal fibroblasts. The format is cell-based.
The test system of series [4] is keratinocytes co-cultured with SCs (10:1). The series is described as follows: Co-culture scratch assay, keratinocytes with Schwann cells. It is filed as cell-based, human. The method, then:
(§1) To determine the influence of Schwann cells and fibroblast on keratinocytes migration and proliferation wound healing scratch assay was conducted. The co-culture experiment performed in Keratinocytes to either Schwann cells or fibroblasts in a ratio of 10:1 with same proposition of their respective medium were seeded on 96-well ImageLock microplate for 6 hours and the wells were pre-coated with collagen-I plate. For the drug treatment cells were pretreated with 4-AP prior to coating for 16-18 hours. Next, the wound scratch was created and treated cells with and without 4-AP in medium. Imaged for every hour until 24 hour and analyzed for percent of closure as described above procedure.

The test system of series [5] is keratinocytes co-cultured with fibroblasts (10:1). The series is described as follows: Co-culture scratch assay, keratinocytes with fibroblasts. The format is cell-based, human. As to conditions: measured at 15 hours; 72% in non-treated. As for the experimental part:
as §1

Take `Nc1ccncc1` [4-AP, 4-aminopyridine]: in series [1], the cell viability entry was “not affected”. In series [2] (1 mM 4-AP, control closed at 32 hours), the “time of complete scratch closure” value was determined as 18 h. In addition, in series [2] (4-AP treated vs no treatment), the “SOX10 and NGF expression in keratinocytes” value is listed as “both increased”; the “expression of keratins associated with keratinocyte differentiation (K10)” value is “did not increase”. For the same compound, the fibroblast migration entry in series [3] (1 mM 4-AP vs no treatment) was “unaffected”. In addition, the “vimentin and α-SMA protein expression (fibroblast to myofibroblast conversion)” value in series [3] (4-AP exposed vs no treatment) is reported as “increased”. Besides, in series [4] (at 15 hours, 80% in non-treated), the “percentage of wound closure” value was 98%. Also, in series [4] (with 4-AP, 20 hours without treatment), the “time to scratch closure” value was no more than 15 h. In addition, the scratch closure in series [5] is 93%.
